{"source": "patent US20240425501A1", "about": "“NOVEL BICYCLIC HETEROARYL DERIVATIVES AS SOS1:KRAS PROTEINPROTEIN INTERACTION INHIBITORS” (SATYARX PHARMA INNOVATIONS PVT LTD, priority 2021, published 2024)", "data": [{"biological_target": "T1, hSOS1 enzyme / KRAS (G12C), GST-Tag, GDP-bound protein (Homo sapiens, UniProt Q07889)", "T1 sequence (Q07889 564-1049 limits assumed)": "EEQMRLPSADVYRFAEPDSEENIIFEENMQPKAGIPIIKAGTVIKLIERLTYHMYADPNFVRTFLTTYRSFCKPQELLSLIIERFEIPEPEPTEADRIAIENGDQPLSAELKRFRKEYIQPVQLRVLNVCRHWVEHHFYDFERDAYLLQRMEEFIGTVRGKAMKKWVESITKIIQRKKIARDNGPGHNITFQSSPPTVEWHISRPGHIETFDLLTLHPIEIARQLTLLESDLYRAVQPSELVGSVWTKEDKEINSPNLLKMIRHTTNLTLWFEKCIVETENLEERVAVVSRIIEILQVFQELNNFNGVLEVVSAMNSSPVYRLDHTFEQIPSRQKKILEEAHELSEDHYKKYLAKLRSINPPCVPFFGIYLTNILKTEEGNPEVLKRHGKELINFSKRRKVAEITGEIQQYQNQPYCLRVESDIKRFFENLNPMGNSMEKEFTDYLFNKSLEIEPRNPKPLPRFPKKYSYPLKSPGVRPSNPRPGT", "test": "SOS1-mediated KRAS guanine nucleotide exchange (GEF) assay, HTRF (\"On Assay\")", "type": "biochemical", "conditions": "1 μM compound", "description": "Biochemical Assay: Measurement of SOS1-Mediated KRAS Guanine Nucleotide Exchange (GEF) Assay\nThis assay quantifies the HTRF-based SOS1 mediated guanine nucleotide exchange assay detecting GTP binding to KRAS (G12C), GST-Tag, GDP-bound protein. This is also referred as “On Assay”.The assay buffer composition is as follows: 10 mM HEPES pH-7, 150 mM NaCl, 5 mM MgCl2, 1 mM DTT, 0.05% BSA, 0.0025% IGEPAL CA-630 and MilliQ water. 0.5 μl of compounds diluted in assay buffer were dispensed into the respective wells of 384 black well test plate. 4.75 μl of KRAS working solution containing 100 nM KRAS (G12C), GST-Tag, GDP-bound protein GDP-loaded (Reaction biology) and 2 nM Anti GST-Tb cryptate (FRET donor, Cisbio) was added in assay buffer. The components were incubated for 10 min at 25° C.\n4.75 μl of hSOS1 working solution containing 20 nM hSOS1 enzyme and 200 nM EDA-GTP-DY-647P (FRET acceptor, synthesized by Jena Bioscience (Germany), supplied as a 1 mM solution) was further added in assay buffer. 4.75 μl of inhibitor control having only 200 nM EDA-GTP-DY-647P1 component without hSOS1 working solution was added in the negative control well. The plate was short spun for few seconds and incubated for 10 min. HTRF was measured using Perkin Elmer-Nivo 5F multimode plate reader.\nHTRF settings: EXCITATION FILTER—320/75 nm, EMISSION FILTER (1) —615/8 nm, EMISSION FILTER (2)—665/8 nm", "units": {"inhibition at 1 µM": "%"}, "values": [{"smiles": "C[C@@H](Nc1nc(N2CCC2)nc2cnc(N3CCC(F)(F)CC3)cc12)c1cc(N)cc(C(F)(F)F)c1", "note": "[Example 51, (R)—N-(1-(3-amino-5-(trifluoromethyl)phenyl)ethyl)-2-(azetidin-1-yl)-6-(4,4-difluoropiperidin-1-yl)pyrido[3,4-d]pyrimidin-4-amine]", "inhibition at 1 µM": "≥ 50"}, {"smiles": "C[C@@H](Nc1nc(N2CCC2)nc2cnc(N3CCN(C4CCC4)CC3)cc12)c1cc(N)cc(C(F)(F)F)c1", "note": "[Example 52, (R)—N-(1-(3-amino-5-(trifluoromethyl)phenyl)ethyl)-2-(azetidin-1-yl)-6-(4-cyclobutylpiperazin-1-yl)pyrido[3,4-d]pyrimidin-4-amine]", "inhibition at 1 µM": "≥ 50"}, {"smiles": "C[C@@H](Nc1nc(N2CCC2)nc2cnc(N(C)C)cc12)c1cc(N)cc(C(F)(F)F)c1", "note": "[Example 53, (R)—N4-(1-(3-amino-5-(trifluoromethyl)phenyl)ethyl)-2-(azetidin-1-yl)-N6,N6-dimethylpyrido[3,4-d]pyrimidine-4,6-diamine]", "inhibition at 1 µM": "≥ 50"}, {"smiles": "CC(C)Nc1cc2c(N[C@H](C)c3cc(N)cc(C(F)(F)F)c3)nc(N3CCC3)nc2cn1", "note": "[Example 54, (R)—N4-(1-(3-amino-5-(trifluoromethyl)phenyl)ethyl)-2-(azetidin-1-yl)-N6-isopropylpyrido[3,4-d]pyrimidine-4,6-diamine]", "inhibition at 1 µM": "≥ 50"}, {"smiles": "CC(C)Nc1cc2c(N[C@H](C)c3cc(N)cc(C(F)(F)F)c3)nc(N3CCCC3)nc2cn1", "note": "[Example 55, (R)—N4-(1-(3-amino-5-(trifluoromethyl)phenyl)ethyl)-N6-isopropyl-2-(pyrrolidin-1-yl)pyrido[3,4-d]pyrimidine-4,6-diamine]", "inhibition at 1 µM": "≥ 50"}, {"smiles": "CNc1cc2c(N[C@H](C)c3cc(N)cc(C(F)(F)F)c3)nc(N3CCC3)nc2cn1", "note": "[Example 56, (R)—N4-(1-(3-amino-5-(trifluoromethyl)phenyl)ethyl)-2-(azetidin-1-yl)-N6-methylpyrido[3,4-d]pyrimidine-4,6-diamine]", "inhibition at 1 µM": "≥ 50"}, {"smiles": "COc1nc(N[C@H](C)c2cc(N)cc(C(F)(F)F)c2)c2cc(N3CCOCC3)ncc2n1", "note": "[Example 57, (R)—N-(1-(3-amino-5-(trifluoromethyl)phenyl)ethyl)-2-methoxy-6-morpholinopyrido[3,4-d]pyrimidin-4-amine]", "inhibition at 1 µM": "≥ 50"}, {"smiles": "COc1nc(N[C@H](C)c2cc(N)cc(C(F)(F)F)c2)c2cc(N3CCC(OC)CC3)ncc2n1", "note": "[Example 58, (R)—N-(1-(3-amino-5-(trifluoromethyl)phenyl)ethyl)-2-methoxy-6-(4-methoxypiperidin-1-yl)pyrido[3,4-d]pyrimidin-4-amine]", "inhibition at 1 µM": "≥ 50"}, {"smiles": "C[C@@H](Nc1nc(Cl)nc2cnc(N3CCOCC3)cc12)c1cccc(C(F)F)c1F", "note": "[Example 59, (R)-2-chloro-N-(1-(3-(difluoromethyl)-2-fluorophenyl)ethyl)-6-morpholinopyrido[3,4-d]pyrimidin-4-amine]", "inhibition at 1 µM": "≥ 50"}, {"smiles": "COC1CCN(c2cc3c(N[C@H](C)c4cccc(C(F)F)c4F)nc(Cl)nc3cn2)CC1", "note": "[Example 60, (R)-2-chloro-N-(1-(3-(difluoromethyl)-2-fluorophenyl)ethyl)-6-(4-methoxypiperidin-1-yl)pyrido[3,4-d]pyrimidin-4-amine]", "inhibition at 1 µM": "≥ 50"}, {"smiles": "C[C@@H](Nc1nc(Cl)nc2cnc(N3CCN(C)CC3)cc12)c1cccc(C(F)F)c1F", "note": "[Example 61, (R)-2-chloro-N-(1-(3-(difluoromethyl)-2-fluorophenyl)ethyl)-6-(4-methylpiperazin-1-yl)pyrido[3,4-d]pyrimidin-4-amine]", "inhibition at 1 µM": "≥ 50"}, {"smiles": "CCN1CCN(c2cc3c(N[C@H](C)c4cccc(C(F)F)c4F)nc(Cl)nc3cn2)CC1", "note": "[Example 62, (R)-2-chloro-N-(1-(3-(difluoromethyl)-2-fluorophenyl)ethyl)-6-(4-ethylpiperazin-1-yl)pyrido[3,4-d]pyrimidin-4-amine]", "inhibition at 1 µM": "≥ 50"}, {"smiles": "C[C@@H](Nc1nc(Cl)nc2cnc(C3CCOCC3)cc12)c1cc(N)cc(C(F)(F)F)c1", "note": "[Example 63, (R)—N-(1-(3-amino-5-(trifluoromethyl)phenyl)ethyl)-2-chloro-6-(tetrahydro-2H-pyran-4-yl)pyrido[3,4-d]pyrimidin-4-amine]", "inhibition at 1 µM": "≥ 50"}, {"smiles": "C[C@@H](Nc1nc(Cl)nc2cnc(C3CCOCC3)cc12)c1cccc(C(F)F)c1F", "note": "[Example 64, (R)-2-chloro-N-(1-(3-(difluoromethyl)-2-fluorophenyl)ethyl)-6-(tetrahydro-2H-pyran-4-yl)pyrido[3,4-d]pyrimidin-4-amine]", "inhibition at 1 µM": "≥ 50"}, {"smiles": "C[C@@H](Nc1nc(N(C)C)nc2cnc(C3CCOCC3)cc12)c1cc(N)cc(C(F)(F)F)c1", "note": "[Example 65, (R)—N4-(1-(3-amino-5-(trifluoromethyl)phenyl)ethyl)-N2,N2-dimethyl-6-(tetrahydro-2H-pyran-4-yl)pyrido[3,4-d]pyrimidine-2,4-diamine]", "inhibition at 1 µM": "≥ 50"}, {"smiles": "CNc1nc(N[C@H](C)c2cc(N)cc(C(F)(F)F)c2)c2cc(C3CCOCC3)ncc2n1", "note": "[Example 66, (R)—N4-(1-(3-amino-5-(trifluoromethyl)phenyl)ethyl)-N2-methyl-6-(tetrahydro-2H-pyran-4-yl)pyrido[3,4-d]pyrimidine-2,4-diamine]", "inhibition at 1 µM": "≥ 50"}, {"smiles": "C[C@@H](Nc1nc(N2CCC2)nc2cnc(C3CCOCC3)cc12)c1cc(N)cc(C(F)(F)F)c1", "note": "[Example 67, (R)—N-(1-(3-amino-5-(trifluoromethyl)phenyl)ethyl)-2-(azetidin-1-yl)-6-(tetrahydro-2H-pyran-4-yl)pyrido[3,4-d]pyrimidin-4-amine]", "inhibition at 1 µM": "≥ 50"}, {"smiles": "C[C@@H](Nc1nc(N2CCC2)nc2cnc(C3CCN(C)CC3)cc12)c1cc(N)cc(C(F)(F)F)c1", "note": "[Example 68, (R)—N-(1-(3-amino-5-(trifluoromethyl)phenyl)ethyl)-2-(azetidin-1-yl)-6-(1-methylpiperidin-4-yl)pyrido[3,4-d]pyrimidin-4-amine]", "inhibition at 1 µM": "≥ 50"}, {"smiles": "C[C@@H](Nc1nc(N(C)C)nc2cnc(C3CCN(C)CC3)cc12)c1cc(N)cc(C(F)(F)F)c1", "note": "[Example 69, (R)—N4-(1-(3-amino-5-(trifluoromethyl)phenyl)ethyl)-N2,N2-dimethyl-6-(1-methylpiperidin-4-yl)pyrido[3,4-d]pyrimidine-2,4-diamine]", "inhibition at 1 µM": "≥ 50"}, {"smiles": "CCN1CCN(c2cc3c(N[C@H](C)c4cc(N)cc(C(F)(F)F)c4)nc(Cl)nc3cc2F)CC1", "note": "[Example 70, (R)—N-(1-(3-amino-5-(trifluoromethyl)phenyl)ethyl)-2-chloro-6-(4-ethylpiperazin-1-yl)-7-fluoroquinazolin-4-amine]", "inhibition at 1 µM": "≥ 50"}, {"smiles": "CCN1CCN(c2cc3c(N[C@H](C)c4cc(N)cc(C(F)(F)F)c4)nc(Cl)nc3cc2C)CC1", "note": "[Example 71, (R)—N-(1-(3-amino-5-(trifluoromethyl)phenyl)ethyl)-2-chloro-6-(4-ethylpiperazin-1-yl)-7-methylquinazolin-4-amine]", "inhibition at 1 µM": "≥ 50"}, {"smiles": "CCN1CCN(c2cc3c(N[C@H](C)c4cc(N)cc(C(F)(F)F)c4)nc(Cl)nc3cc2OC)CC1", "note": "[Example 72, (R)—N-(1-(3-amino-5-(trifluoromethyl)phenyl)ethyl)-2-chloro-6-(4-ethylpiperazin-1-yl)-7-methoxyquinazolin-4-amine]", "inhibition at 1 µM": "≥ 50"}, {"smiles": "CCN1CCN(c2ccc3nc(Cl)nc(N[C@H](C)c4cc(N)cc(C(F)(F)F)c4)c3c2)CC1", "note": "[Example 73, (R)—N-(1-(3-amino-5-(trifluoromethyl)phenyl)ethyl)-2-chloro-6-(4-ethylpiperazin-1-yl)quinazolin-4-amine]", "inhibition at 1 µM": "≥ 50"}, {"smiles": "CNc1nc(N[C@H](C)c2cc(N)cc(C(F)(F)F)c2)c2cc(N3CCOCC3)ccc2n1", "note": "[Example 74, (R)—N4-(1-(3-amino-5-(trifluoromethyl)phenyl)ethyl)-N2-methyl-6-morpholinoquinazoline-2,4-diamine]", "inhibition at 1 µM": "≥ 50"}, {"smiles": "CCC(=O)Nc1nc(N[C@H](C)c2cc(N)cc(C(F)(F)F)c2)c2cc(N3CCCC3)ncc2n1", "note": "[Example 75, (R)—N-(4-((1-(3-amino-5-(trifluoromethyl)phenyl)ethyl)amino)-6-(pyrrolidin-1-yl)pyrido[3,4-d]pyrimidin-2-yl)propionamide]", "inhibition at 1 µM": "< 50"}, {"smiles": "COCC(=O)Nc1nc(N[C@H](C)c2cc(N)cc(C(F)(F)F)c2)c2cc(N3CCCC3)ncc2n1", "note": "[Example 76, (R)—N-(4-((1-(3-amino-5-(trifluoromethyl)phenyl)ethyl)amino)-6-(pyrrolidin-1-yl)pyrido[3,4-d]pyrimidin-2-yl)-2-methoxyacetamide]", "inhibition at 1 µM": "< 50"}]}]}
